Earlier results, collected in US20040053963A1, “Urotensin-II receptor antagonists” (priority 2003, published 2004).

System: rat-isolated aorta
Details: Ames et. al. Nature 1999, 401, 282

CC(C)[C@H](NC(=O)[C@@H]1CSSC[C@H](NC(=O)[C@H](CC(=O)O)NC(=O)[C@@H]2CCCN2C(=O)[C@@H](NC(=O)[C@@H](N)CCC(=O)O)[C@@H](C)O)C(=O)N[C@@H](Cc2ccccc2)C(=O)N[C@@H](Cc2c[nH]c3ccccc23)C(=O)N[C@@H](CCCCN)C(=O)N[C@@H](Cc2ccc(O)cc2)C(=O)N1)C(=O)O [Human Urotensin-II]
contractile activity: most potent contractile agonist identified to date
